The values that follow come from the supplement of paper PMC11003180.

Common to all, as to experiment: drug sensitivity score (DSS) from 5-dose viability curve (DSS (area-based score, 0 = no response)); higher = more sensitive (stronger viability inhibition); extreme values may be limits of the assay
The test system of experiment [1] is MDCK wild-type - doxycycline. As to conditions: doxycycline: none; 72 h. Summed up:
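An oncology library of 528 drugs was pre-spotted at five doses (1-10,000 nM) in 384-well plates, and parental MDCK cells without doxycycline were added at 2000 cells/well. The plates were kept at 37 °C for 72 h. Drug sensitivity scores were obtained by fitting dose-response curves in the Breeze pipeline to CellTiter-Glo viability readings scaled per plate between vehicle and positive controls.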

Experiment [2] deals with MDCK wild-type + doxycycline. As to conditions: doxycycline: 10 ng/mL; 72 h. The procedure, abridged:
(§1)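 Pre-spotted 384-well plates held 528 oncology drugs, each at five doses from 1 to 10,000 nM. Parental and doxycycline-inducible MDCK cells, exposed beforehand to 10 ng/mL doxycycline in the medium, were added at 2000 cells/well and incubated 72 h at 37 °C. Viability came from CellTiter-Glo luminescence normalized per plate to vehicle and positive controls, and the Breeze pipeline fitted dose-response curves to give drug sensitivity scores.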

The subject of experiment [3] is MDCK p60AmotL2-inducible + doxycycline (p60AmotL2 expressing). As to conditions: doxycycline: 10 ng/mL; 72 h. The procedure, abridged:
as §1

Take `Cc1c(-c2c(-c3ccc(F)o3)sc3ncnc(O[C@H](Cc4ccccc4OCc4ccnn4CC(F)(F)F)C(=O)O)c23)ccc(OCCN2CCN(C)CC2)c1Cl`: the drug sensitivity score in experiment [1], in experiment [2] and in experiment [3] was 0 in each case.

For the compound `COc1cc([C@@H]2c3cc4c(cc3[C@@H](O[C@@H]3O[C@@H]5CO[C@@H](c6cccs6)O[C@H]5[C@H](O)[C@H]3O)[C@H]3COC(=O)[C@H]23)OCO4)cc(OC)c1O` [Teniposide], the drug sensitivity score was 0.9 in experiment [1], 1.5 in experiment [2] and 2.7 in experiment [3].

Regarding `Cc1cc(F)c(C(=O)Nc2cccc(-c3nncn3C(C)C)n2)cc1-n1cnc(C2CC2)c1` [Selonsertib], the drug sensitivity score in experiment [1], in experiment [2] and in experiment [3] was 0 throughout.

In the case of `Nc1nc(OCc2cc(Br)cs2)c2[nH]cnc2n1` [Lomeguatrib], the drug sensitivity score in experiment [1], in experiment [2] and in experiment [3] was 0 each time.

Regarding `CCn1c(=O)c(-c2ccc(Cl)cc2Cl)cc2cnc(Nc3ccc(N4CCNCC4)c(F)c3)nc21` [FRAX486], the drug sensitivity score in experiment [1] turned out to be 1.7; in experiment [2], 0; in experiment [3] it was 2.3.

For the compound `CNC(=O)c1cccc(-c2ccc3c(N4CCOC[C@@H]4C)nc(N4CCOC[C@@H]4C)nc3n2)c1` [Vistusertib], the drug sensitivity score worked out at 7.5 in experiment [1], 10.5 in experiment [2] and 15.5 in experiment [3].

`CCc1nc(C(N)=O)c(Nc2ccc(N3CCC(N4CCN(C)CC4)CC3)c(OC)c2)nc1NC1CCOCC1` [Gilteritinib]: the drug sensitivity score in experiment [1] worked out at 0.9; in experiment [2], 0.1; in experiment [3], 1.

With `Nc1ncnc2c1nc(Cl)n2[C@@H]1O[C@H](CO)[C@@H](O)[C@H]1O` [8-chloro-adenosine], the drug sensitivity score in experiment [1] was found to be 6.7; in experiment [2], 8.3; in experiment [3], 13.6.

With `O=C(Nc1cccc(NC(=O)c2cccc(O)c2O)c1)c1cccc(O)c1O` [MST-312], the drug sensitivity score in experiment [1] came to 7.2; in experiment [2], 5.9; in experiment [3] it was 9.1.

In the case of `CC(C)(C)c1cc(NC(=O)Nc2ccc(-c3cn4c(n3)sc3cc(OCCN5CCOCC5)ccc34)cc2)no1` [Quizartinib], the figures for the drug sensitivity score in experiment [1], in experiment [2] and in experiment [3] were 3.3, 3 and 3.9, respectively.

On to `CC[C@]1(O)C[C@H]2CN(CCc3c([nH]c4ccccc34)[C@@](C(=O)OC)(c3cc4c(cc3OC)N(C=O)[C@H]3[C@@](O)(C(=O)OC)[C@H](OC(C)=O)[C@]5(CC)C=CCN6CC[C@]43[C@@H]65)C2)C1` [Vincristine], for which the drug sensitivity score in experiment [1] was 20.2; in experiment [2], 20.3; in experiment [3], 23.1.

`O=c1[nH]c(C2CCCN2)nc2c1oc1ccc(Cl)cc12` (stereo not given): the drug sensitivity score in experiment [1], in experiment [2] and in experiment [3] was 0 throughout.

`Cc1cc(C(C)Nc2ccccc2)c2nc(N3CCOCC3)cc(=O)n2c1` (stereo not given) [TGX-221]: the drug sensitivity score in experiment [1] was found to be 0; in experiment [2], 0.4; in experiment [3] it was 0.3.

Take `C[C@@H]1CN(CC(=O)Nc2ccc3c(c2)Cc2cccc(-c4cc(=O)cc(N5CCOCC5)o4)c2S3)C[C@H](C)O1`: the drug sensitivity score in experiment [1] was determined as 2.2; in experiment [2], 2; in experiment [3] it was 2.4.

Regarding `CC(C)c1cc(-c2n[nH]c(=O)n2-c2ccc3c(ccn3C)c2)c(O)cc1O` [Ganetespib], the drug sensitivity score in experiment [1] worked out at 16.7; in experiment [2] it was 17.4; in experiment [3] it was 19.3.
